Results as given in ChEMBL document CHEMBL1201862, “PubChem BioAssay data set” (2004).
Active and inactive are the calls of the source.

Experiments:
[1] = THP-1 cell cytotoxicity, dose response, cytotoxicity control for non-replicating M. tuberculosis project (AID 489025); assay type: functional
[2] = HepG2 cell cytotoxicity, dose response, cytotoxicity control for non-replicating M. tuberculosis project (AID 489018); assay type: functional; conditions: Mycobacterium tuberculosis
[3] = system: Streptococcus sp. 'group A'; test: Streptococcus pyogenes SK(-)GAS viability under kanamycin – luminescence, BacTiterGlo, confirmation, counter-screen for streptokinase expression inhibitor project, dose response (AID 1900); assay type: functional, organism-based
[4] = cells; assay type: functional
[5] = target: T1, Streptokinase A (Streptococcus pyogenes serotype M1, UniProt P10520); test: viability-normalized secreted streptokinase activity reduction – plasminogen activation absorbance, OD405, dose response (AID 1914); assay type: functional, Streptococcus pyogenes M1 GAS;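 further: secreted streptokinase activity via plasminogen activation per viability signal from cell pellet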
T1 sequence (P10520 whole entry): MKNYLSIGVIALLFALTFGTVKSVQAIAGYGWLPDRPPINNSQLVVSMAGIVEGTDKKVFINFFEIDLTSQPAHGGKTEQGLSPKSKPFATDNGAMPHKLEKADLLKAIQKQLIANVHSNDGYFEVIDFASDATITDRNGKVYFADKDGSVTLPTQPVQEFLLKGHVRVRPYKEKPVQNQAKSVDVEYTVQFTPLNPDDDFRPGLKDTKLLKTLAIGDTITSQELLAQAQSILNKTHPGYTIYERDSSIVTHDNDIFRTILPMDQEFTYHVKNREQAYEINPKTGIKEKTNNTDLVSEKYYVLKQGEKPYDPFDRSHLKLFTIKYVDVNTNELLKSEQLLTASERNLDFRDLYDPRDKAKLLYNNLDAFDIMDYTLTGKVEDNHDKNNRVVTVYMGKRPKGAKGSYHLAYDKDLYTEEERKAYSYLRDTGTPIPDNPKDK

[6] = system: Streptococcus; test: GAS UMAA2166 growth inhibition – luminescence, BacTiterGlo, counter-screen for streptokinase expression inhibitor project, dose response (AID 1915); assay type: functional, organism-based;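 further: potency for reduction of bacterial viability or growth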
[7] = target: Voltage-dependent T-type calcium channel subunit alpha-1H (Homo sapiens, UniProt O95180); assay type: functional;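 further: channel activity triggered by adding a high calcium stimulation buffer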
[8] = target: T2, Aminopeptidase N (Plasmodium falciparum FcB1/Columbia, UniProt O96935); test: malaria alanyl aminopeptidase activity blockers – biochemical, fluorogenic H-Leu-NHMec substrate, 1536-well (AID 1445); parameters: species or system Plasmodium falciparum 3D7, 3D7
T2 sequence (O96935 whole entry): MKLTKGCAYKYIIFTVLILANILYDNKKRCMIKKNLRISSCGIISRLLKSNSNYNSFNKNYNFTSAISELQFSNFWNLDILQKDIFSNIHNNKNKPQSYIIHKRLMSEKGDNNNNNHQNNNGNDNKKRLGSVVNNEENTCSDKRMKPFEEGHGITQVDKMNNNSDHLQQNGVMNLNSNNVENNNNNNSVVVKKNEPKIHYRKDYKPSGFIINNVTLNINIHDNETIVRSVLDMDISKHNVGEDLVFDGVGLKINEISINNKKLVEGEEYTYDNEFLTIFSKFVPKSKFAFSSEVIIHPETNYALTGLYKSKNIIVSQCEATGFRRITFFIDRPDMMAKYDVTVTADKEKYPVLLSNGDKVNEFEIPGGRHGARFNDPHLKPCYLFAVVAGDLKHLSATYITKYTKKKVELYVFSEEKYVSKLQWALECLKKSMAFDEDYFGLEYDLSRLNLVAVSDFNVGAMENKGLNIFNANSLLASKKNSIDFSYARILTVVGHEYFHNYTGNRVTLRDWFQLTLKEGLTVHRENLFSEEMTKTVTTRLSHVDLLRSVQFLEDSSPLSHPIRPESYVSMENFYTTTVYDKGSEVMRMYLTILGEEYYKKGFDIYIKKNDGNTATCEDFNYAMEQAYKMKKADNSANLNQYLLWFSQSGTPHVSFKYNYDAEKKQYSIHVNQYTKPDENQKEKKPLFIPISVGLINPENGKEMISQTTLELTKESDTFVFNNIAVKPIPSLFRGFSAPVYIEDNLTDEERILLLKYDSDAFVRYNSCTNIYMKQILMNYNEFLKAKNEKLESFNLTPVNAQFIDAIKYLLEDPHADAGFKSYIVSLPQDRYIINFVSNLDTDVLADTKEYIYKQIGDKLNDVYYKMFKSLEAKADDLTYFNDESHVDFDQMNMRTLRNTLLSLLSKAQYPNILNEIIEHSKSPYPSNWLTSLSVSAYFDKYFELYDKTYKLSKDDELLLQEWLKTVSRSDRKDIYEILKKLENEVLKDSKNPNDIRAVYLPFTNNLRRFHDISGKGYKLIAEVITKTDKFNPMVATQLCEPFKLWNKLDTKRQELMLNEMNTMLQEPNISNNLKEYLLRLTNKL

[9] = cells
[10] = Trypanosoma cruzi growth suppression in host cells – NIH3T3 host cells, beta-gal luminescence, confirmation (AID 2044); assay type: functional, cell-based;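 further: intracellular parasites grown in NIH/3T3 mouse fibroblasts as host cells; luminescent beta-galactosidase reporter signal from transgenic T. cruzi replicating inside host cells; inhibitors lower the luminescence signal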
[11] = NIH3T3 cell viability loss – ATP luminescence, mouse fibroblasts, counter-screen, dose response (AID 2010); assay type: functional, cell-based;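 further: cells exposed to compound for about 90 hours before reading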
[12] = target: Cytochrome P450 2C9 (Homo sapiens, UniProt P11712)
[13] = target: Cytochrome P450 2D6 (Homo sapiens, UniProt P10635);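 further: CYP2D6 member of a cytochrome P450 panel assay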
Chain of Cytochrome P450 2D6 (P10635 whole entry): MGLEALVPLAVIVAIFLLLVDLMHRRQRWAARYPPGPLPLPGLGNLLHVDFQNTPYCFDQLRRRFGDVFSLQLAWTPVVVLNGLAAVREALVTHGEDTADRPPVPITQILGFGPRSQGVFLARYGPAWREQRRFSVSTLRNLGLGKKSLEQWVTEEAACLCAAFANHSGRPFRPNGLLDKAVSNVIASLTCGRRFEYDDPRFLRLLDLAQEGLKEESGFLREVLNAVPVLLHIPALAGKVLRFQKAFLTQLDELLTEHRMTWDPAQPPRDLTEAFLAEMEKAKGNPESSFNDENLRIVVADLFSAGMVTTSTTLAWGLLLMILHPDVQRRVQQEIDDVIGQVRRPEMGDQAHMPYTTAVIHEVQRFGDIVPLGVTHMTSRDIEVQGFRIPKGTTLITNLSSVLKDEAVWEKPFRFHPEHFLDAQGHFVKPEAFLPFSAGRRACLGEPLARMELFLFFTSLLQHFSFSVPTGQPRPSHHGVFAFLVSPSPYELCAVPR

Chain of Voltage-dependent T-type calcium channel subunit alpha-1H (O95180 whole entry): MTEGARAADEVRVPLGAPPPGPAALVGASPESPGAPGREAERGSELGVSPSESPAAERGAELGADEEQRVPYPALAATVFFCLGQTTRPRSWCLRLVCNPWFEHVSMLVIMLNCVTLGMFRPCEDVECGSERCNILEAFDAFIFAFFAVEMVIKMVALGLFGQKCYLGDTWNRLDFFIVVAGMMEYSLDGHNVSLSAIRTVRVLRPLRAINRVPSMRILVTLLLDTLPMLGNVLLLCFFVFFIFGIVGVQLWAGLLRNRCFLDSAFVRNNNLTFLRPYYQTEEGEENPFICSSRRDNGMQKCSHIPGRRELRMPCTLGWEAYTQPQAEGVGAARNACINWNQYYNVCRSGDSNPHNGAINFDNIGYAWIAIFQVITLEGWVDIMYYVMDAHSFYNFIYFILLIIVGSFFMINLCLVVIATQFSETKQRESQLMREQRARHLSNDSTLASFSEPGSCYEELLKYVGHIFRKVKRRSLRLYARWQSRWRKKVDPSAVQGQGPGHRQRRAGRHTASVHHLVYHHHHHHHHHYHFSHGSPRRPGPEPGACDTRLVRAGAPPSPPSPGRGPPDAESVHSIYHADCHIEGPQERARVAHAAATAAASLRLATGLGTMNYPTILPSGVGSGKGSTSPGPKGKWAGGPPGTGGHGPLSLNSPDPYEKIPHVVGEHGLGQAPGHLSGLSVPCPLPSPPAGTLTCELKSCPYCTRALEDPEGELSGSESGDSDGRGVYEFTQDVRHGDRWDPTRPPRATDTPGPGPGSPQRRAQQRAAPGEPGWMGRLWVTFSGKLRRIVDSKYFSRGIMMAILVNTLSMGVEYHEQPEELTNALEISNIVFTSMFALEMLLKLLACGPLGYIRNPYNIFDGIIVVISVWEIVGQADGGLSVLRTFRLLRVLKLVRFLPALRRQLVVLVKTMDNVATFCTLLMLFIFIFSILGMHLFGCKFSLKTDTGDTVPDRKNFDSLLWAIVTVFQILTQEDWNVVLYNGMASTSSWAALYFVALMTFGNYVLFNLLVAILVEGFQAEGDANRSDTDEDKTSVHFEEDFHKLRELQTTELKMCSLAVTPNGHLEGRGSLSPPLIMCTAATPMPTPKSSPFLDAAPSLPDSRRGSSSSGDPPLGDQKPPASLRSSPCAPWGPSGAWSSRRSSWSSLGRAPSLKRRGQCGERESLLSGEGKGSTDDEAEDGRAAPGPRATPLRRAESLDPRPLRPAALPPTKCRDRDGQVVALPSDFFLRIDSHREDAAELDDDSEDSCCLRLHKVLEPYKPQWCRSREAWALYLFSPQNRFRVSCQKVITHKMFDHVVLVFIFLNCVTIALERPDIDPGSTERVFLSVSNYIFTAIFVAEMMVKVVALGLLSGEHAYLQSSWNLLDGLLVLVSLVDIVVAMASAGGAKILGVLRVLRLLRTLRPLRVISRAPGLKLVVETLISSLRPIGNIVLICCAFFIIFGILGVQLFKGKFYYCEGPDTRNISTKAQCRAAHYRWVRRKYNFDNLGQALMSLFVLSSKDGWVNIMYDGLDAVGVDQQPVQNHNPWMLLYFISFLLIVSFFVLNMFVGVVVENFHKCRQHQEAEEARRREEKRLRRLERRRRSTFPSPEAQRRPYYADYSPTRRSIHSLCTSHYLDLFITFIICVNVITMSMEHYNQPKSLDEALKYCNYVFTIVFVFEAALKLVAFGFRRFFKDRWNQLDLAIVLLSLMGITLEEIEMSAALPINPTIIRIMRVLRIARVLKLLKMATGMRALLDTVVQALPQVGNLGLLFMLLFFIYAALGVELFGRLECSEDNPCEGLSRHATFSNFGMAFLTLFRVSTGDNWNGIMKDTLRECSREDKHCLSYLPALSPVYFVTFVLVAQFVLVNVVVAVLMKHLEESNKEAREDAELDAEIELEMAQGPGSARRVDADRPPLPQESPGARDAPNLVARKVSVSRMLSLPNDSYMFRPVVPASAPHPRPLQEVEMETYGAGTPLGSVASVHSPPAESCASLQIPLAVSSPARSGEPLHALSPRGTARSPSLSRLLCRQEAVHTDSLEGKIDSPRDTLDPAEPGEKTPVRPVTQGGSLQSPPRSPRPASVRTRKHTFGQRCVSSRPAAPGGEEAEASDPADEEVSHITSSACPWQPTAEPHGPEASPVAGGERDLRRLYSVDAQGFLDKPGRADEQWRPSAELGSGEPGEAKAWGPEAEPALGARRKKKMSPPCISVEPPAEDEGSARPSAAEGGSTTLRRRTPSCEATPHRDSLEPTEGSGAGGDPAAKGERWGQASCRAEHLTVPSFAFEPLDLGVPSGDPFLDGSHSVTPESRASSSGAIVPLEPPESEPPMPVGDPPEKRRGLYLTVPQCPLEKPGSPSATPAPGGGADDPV
Chain of Cytochrome P450 2C9 (P11712 whole entry): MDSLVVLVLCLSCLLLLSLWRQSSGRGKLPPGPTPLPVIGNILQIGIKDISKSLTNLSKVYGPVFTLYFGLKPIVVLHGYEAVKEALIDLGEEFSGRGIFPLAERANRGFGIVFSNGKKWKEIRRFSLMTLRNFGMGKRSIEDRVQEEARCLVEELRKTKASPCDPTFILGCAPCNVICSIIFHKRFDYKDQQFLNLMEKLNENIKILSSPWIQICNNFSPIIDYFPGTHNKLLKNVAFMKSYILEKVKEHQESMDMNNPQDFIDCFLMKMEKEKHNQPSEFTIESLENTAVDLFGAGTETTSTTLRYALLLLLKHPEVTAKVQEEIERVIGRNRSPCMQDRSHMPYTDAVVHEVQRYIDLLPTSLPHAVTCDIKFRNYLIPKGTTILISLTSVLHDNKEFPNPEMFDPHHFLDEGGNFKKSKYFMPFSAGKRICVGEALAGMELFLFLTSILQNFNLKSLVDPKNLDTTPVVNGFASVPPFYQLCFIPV

O=C(N/N=C/c1ccc([N+](=O)[O-])o1)c1ccc(NS(=O)(=O)c2cccs2)cc1
CC50 [1]: 15.9 µM (active)
CC50 [2]: 12.9 µM (active)
EC50 [3]: 1.24 µM (active)
IC50 [4]: 7.09 µM (active)
EC50 [5]: > 150 µM (not active)
EC50 [6]: 6.83 µM (active)

Cc1ccc(-n2nnnc2-c2cnc(N3CCCC3)nc2C(F)(F)F)cc1
EC50 [7]: 8.9 µM (active)

Cc1nn(-c2ccccc2)c(Cl)c1/C=C1\SC(=S)NC1=O
IC50 [8]: 46.8 µM (active)

CCOc1cccc(CN2CCCC(N3CCc4cc(OC)c(OC)cc4C3)C2)c1O (stereo not given)
EC50 [9]: 0.084 µM (active)
EC50 [10]: < 0.1 µM (active)
EC50 [11]: > 60 µM (not active)

O=C(c1ccc([N+](=O)[O-])o1)N1CCc2ccccc2C1
EC50 [9]: 0.042 µM (active)
IC50 [4]: 0.45 µM (active)
EC50 [10]: < 0.1 µM (active)
EC50 [11]: > 60 µM (not active)

CC(C)Oc1cccc(C(=O)C2CCCN(Cc3ccc(Oc4ncccn4)cc3)C2)c1 (stereo not given)
EC50 [9]: 0.081 µM (active)
EC50 [10]: < 0.1 µM (active)
EC50 [11]: > 60 µM (not active)

O=C(CCCc1c[nH]c2ccccc12)NCc1ccc2c(c1)OCO2
EC50 [7]: 2.31 µM (active)

O=C(CCCn1cnc([N+](=O)[O-])n1)Nc1ccc(Cl)c(Cl)c1
AC50 [12]: 15.8 µM (inconclusive)
EC50 [9]: 0.054 µM (active)
EC50 [10]: < 0.1 µM (active)
EC50 [11]: > 60 µM (not active)
AC50 [13]: 15.8 µM (inconclusive)

Cc1ccc(-c2nn(C)c(=O)c3ccccc23)cc1CNC(=O)c1ccco1
IC50 [8]: 21.1 µM (active)
